For this test, the system named is Carausius morosus AKH receptor (Carmo-AKHR). As to the kind of experiment: Calcium bioluminescence (aequorin) reporter assay, CHO-K1 cells stably expressing Carmo-AKHR. To be noted: for Fold-reduction in activity (receptor activation relative to Carmo-HrTH-II): ratio of EC50 relative to Carmo-HrTH-II; for Receptor activation (in words): dose-response or clonal line testing, luminescence. The class given is cell-based. The procedure:
Functional activation of Carmo-AKHR was carried out by following mammalian cell culture procedures as previously described ([20], [29]) with the following modifications. […] At 24 h post-transfection, cells were selected in DMEM:F12 media containing 10% heat-inactivated fetal bovine serum (Wisent, St. Bruno, QC), 1x antimycotic-antibiotic and 600 μg/mL geneticin (G418) until clonal recombinant cells were evident in transfected cells while no live cells were present in non-transfected CHO-K1 cells (control). Individual clonal recombinant colonies were seeded into separate wells of a 96 well cell-culture dish (Sarstedt Inc., Montreal, QC) and grown to confluence while maintaining geneticin selection. To identify clonal recombinant lines with optimal Carmo-AKHR activity yielding the greatest signal-to-noise ratio, individual clonal recombinant lines were assayed in the bioluminescence reporter assay as described previously ([30]). […] The recombinant cell line showing the optimal luminescent response with greatest signal-to-noise ratio was expanded for preparation of cryo-stocks and subsequent detailed investigation of receptor specificity. […] Bruno, QC), 250 μg/mL Geneticin (MilliporeSigma Canada Ltd., Oakville, ON) and 1X antimycotic-antibiotic (ThermoFisher Scientific, Whitby, ON). […] Transfection was completed with PolyJetTM DNA In Vitro Transfection Reagent (FroggaBio, Toronto, ON) following manufacturer recommendations for transfection of adherent cells. At 48 hours post-transfection, cells were detached from culture flasks using Dulbecco's PBS (Wisent, St. Bruno, QC) containing 5 mM Ethylenediaminetetraacetic acid (EDTA) and were prepared for the functional assay as previously described ([30]). […] Immediately after injection of the cells into each well, luminescence was measured for 20 s using a Synergy 2 Multi-Mode Microplate Reader (BioTek, Winooski, VT, USA). […] Data were analyzed using a one-way or two-way ANOVA and Tukey's multiple comparisons post-hoc test, with differences between treatments considered significant if p<0.05.
A general note: Reporter assays use an easily measured gene product as a stand-in for the process of interest.

[1] abbreviates: CHO-K1 stably expressing Carmo-AKHR, transiently aequorin, luminescence measured 20 s, from dose-response activation curves, 3 to 4 independent biological replicates, normalized to ATP maximum, read-out: EC50 value.
Where [2] appears, read: minimal activity up to the highest concentration tested, read-out: EC50 value (M), not determinable: minimal activity.

Where “and” joins values, the source holds several entries; their conditions need not be identical. Equal entries are not always repeated. Where two headings read alike, the source gives them in different places. Starred links: 1 amine or outer side, 2 acyl side, 3 side chain; linkers in the order of their positions; H or OH if unused. Non-standard residues stand in square brackets, D forms with d. Residues, ends and D or L forms follow the SMILES beside them. X1 = O=C([C@H](Cc1c([C@H]2O[C@H](CO)[C@@H](O)[C@H](O)[C@@H]2O)[nH]c2ccccc12)N[*:1])[*:2]; pGlu = O=C1CC[C@@H](C(=O)O)N1

As a reminder, the EC50 is the concentration that produces a half-maximal response.

As to `C[C@H](NC(=O)[C@@H]1CCC(=O)N1)C(=O)N[C@H](C(=O)N[C@@H](Cc1ccccc1)C(=O)N[C@H](C(=O)N1CCC[C@H]1C(=O)N[C@@H](CC(N)=O)C(=O)N[C@@H](Cc1c[nH]c2ccccc12)C(=O)NCC(=O)N[C@H](C(N)=O)[C@@H](C)O)[C@@H](C)O)[C@@H](C)O` [Ala^2-analog] ([pGlu]ATFTPNWGT-NH2), the “Fold-reduction in activity (receptor activation relative to Carmo-HrTH-II)” value was determined as 9.42 fold. In addition, the EC50 under setting [1] amounted to 6.93e-07 M.
Regarding `CC(C)C[C@H](NC(=O)[C@@H]1CCC(=O)N1)C(=O)N[C@H](C(=O)N[C@@H](Cc1ccccc1)C(=O)N[C@@H](C)C(=O)N1CCC[C@H]1C(=O)N[C@@H](CC(N)=O)C(=O)N[C@@H](Cc1c[nH]c2ccccc12)C(=O)NCC(=O)N[C@H](C(N)=O)[C@@H](C)O)[C@@H](C)O` [Ala^5-analog] ([pGlu]LTFAPNWGT-NH2), the “Fold-reduction in activity (receptor activation relative to Carmo-HrTH-II)” value came to 1166.83 fold. In addition, the EC50 under setting [1] was determined as 8.58e-05 M.
In the same order, the values of `CC(C)C[C@H](NC(=O)[C@@H]1CCC(=O)N1)C(=O)N[C@H](C(=O)N[C@@H](Cc1ccccc1)C(=O)N[C@H](C(=O)N[C@@H](C)C(=O)N[C@@H](CC(N)=O)C(=O)N[C@@H](Cc1c[nH]c2ccccc12)C(=O)NCC(=O)N[C@H](C(N)=O)[C@@H](C)O)[C@@H](C)O)[C@@H](C)O` [Ala^6-analog] ([pGlu]LTFTANWGT-NH2) are 5.49 fold and 4.04e-07 M.
In the same order, the values of `CC(C)C[C@H](NC(=O)[C@@H]1CCC(=O)N1)C(=O)N[C@H](C(=O)N[C@@H](Cc1ccccc1)C(=O)N[C@H](C(=O)N1CCC[C@H]1C(=O)N[C@@H](C)C(=O)N[C@@H](Cc1c[nH]c2ccccc12)C(=O)NCC(=O)N[C@H](C(N)=O)[C@@H](C)O)[C@@H](C)O)[C@@H](C)O` [Ala^7-analog] ([pGlu]LTFTPAWGT-NH2) are 4.21 fold and 3.1e-07 M.
For the compound `CC(C)C[C@H](NC(=O)[C@@H]1CCC(=O)N1)C(=O)N[C@H](C(=O)N[C@@H](Cc1ccccc1)C(=O)N[C@H](C(=O)N1CCC[C@H]1C(=O)N[C@@H](CC(N)=O)C(=O)N[C@@H](C)C(=O)NCC(=O)N[C@H](C(N)=O)[C@@H](C)O)[C@@H](C)O)[C@@H](C)O` [Ala^8-analog] ([pGlu]LTFTPNAGT-NH2), the “Fold-reduction in activity (receptor activation relative to Carmo-HrTH-II)” value was above 1360 fold. Further, under setting [2], the EC50 was above 0.0001 M.
`CC(C)C[C@H](NC(=O)[C@@H]1CCC(=O)N1)C(=O)N[C@H](C(=O)N[C@@H](Cc1ccccc1)C(=O)N[C@H](C(=O)N1CCC[C@H]1C(=O)N[C@@H](CC(N)=O)C(=O)N[C@@H](Cc1c[nH]c2ccccc12)C(=O)N[C@@H](C)C(=O)N[C@H](C(N)=O)[C@@H](C)O)[C@@H](C)O)[C@@H](C)O` [Ala^9-analog] ([pGlu]LTFTPNWAT-NH2): the “Fold-reduction in activity (receptor activation relative to Carmo-HrTH-II)” value came out at 20.18 fold. Besides, the concentration for a half-maximal effect (EC50) under setting [1] is 1.48e-06 M.
In the same order, the values of `CC(C)C[C@H](NC(=O)[C@@H]1CCC(=O)N1)C(=O)N[C@H](C(=O)N[C@@H](Cc1ccccc1)C(=O)N[C@H](C(=O)N1CCC[C@H]1C(=O)N[C@@H](CC(N)=O)C(=O)N[C@@H](Cc1c[nH]c2ccccc12)C(=O)NCC(=O)N[C@@H](C)C(N)=O)[C@@H](C)O)[C@@H](C)O` [Ala^10-analog] ([pGlu]LTFTPNWGA-NH2) are 0.15 fold and 1.1e-08 M.
Take `CC(C)C[C@H](NC(=O)[C@@H]1CCC(=O)N1)C(=O)N[C@H](C(=O)N[C@@H](Cc1ccccc1)C(=O)N[C@H](C(=O)N1CCC[C@H]1C(=O)N[C@@H](CC(N)=O)C(=O)N[C@@H](Cc1c[nH]c2ccccc12)C(=O)NCC(=O)N[C@H](C(=O)O)[C@@H](C)O)[C@@H](C)O)[C@@H](C)O` [Carmo-HrTH-II free acid] ([pGlu]LTFTPNWGT-OH): the “Fold-reduction in activity (receptor activation relative to Carmo-HrTH-II)” value is given as above 1360 fold. Moreover, the EC50 under setting [2] is above 0.0001 M.
In the same order, the values of `CC(C)C[C@H](N)C(=O)N[C@H](C(=O)N[C@@H](Cc1ccccc1)C(=O)N[C@H](C(=O)N1CCC[C@H]1C(=O)N[C@@H](CC(N)=O)C(=O)N[C@@H](Cc1c[nH]c2ccccc12)C(=O)NCC(=O)N[C@H](C(N)=O)[C@@H](C)O)[C@@H](C)O)[C@@H](C)O` [Carmo-HrTH-II minus pGlu] (H-LTFTPNWGT-NH2) are above 1360 fold and above 0.0001 M.
For the compound `CC(C)C[C@H](NC(=O)[C@@H]1CCC(=O)N1)C(=O)N[C@H](C(=O)N[C@@H](Cc1ccccc1)C(=O)N[C@H](C(=O)N1CCC[C@H]1C(=O)N[C@@H](CC(N)=O)C(=O)N[C@@H](Cc1c[nH]c2ccccc12)C(=O)NCC(=O)N[C@H](C(N)=O)[C@@H](C)O)[C@@H](C)O)[C@@H](C)O` [Carmo-HrTH-II] ([pGlu]LTFTPNWGT-NH2), the EC50 under setting [1] came to 7.36e-08 M.
In the case of `CC(C)C[C@H](NC(=O)[C@@H]1CCC(=O)N1)C(=O)N[C@H](C(=O)N[C@@H](Cc1ccccc1)C(=O)N[C@H](C(=O)N1CCC[C@H]1C(=O)N[C@@H](CC(N)=O)C(=O)N[C@@H](Cc1c([C@H]2O[C@H](CO)[C@@H](O)[C@H](O)[C@@H]2O)[nH]c2ccccc12)C(=O)NCC(=O)N[C@H](C(N)=O)[C@@H](C)O)[C@@H](C)O)[C@@H](C)O` [Carmo-HrTH-I] ([pGlu]LTFTPN[X1]GT-NH2), the “Fold-reduction in activity (receptor activation relative to Carmo-HrTH-II)” value came out at 1.22 fold. In addition, the concentration for a half-maximal effect (EC50) under setting [1] is 8.97e-08 M.
With `CC(C)C[C@H](NC(=O)[C@@H]1CCC(=O)N1)C(=O)N[C@@H](CC(N)=O)C(=O)N[C@@H](Cc1ccccc1)C(=O)N[C@@H](CO)C(=O)N1CCC[C@H]1C(=O)NCC(=O)N[C@@H](Cc1c[nH]c2ccccc12)C(N)=O` [Panbo-RPCH] ([pGlu]LNFSPGW-NH2), the “Fold-reduction in activity (receptor activation relative to Carmo-HrTH-II)” value was 455 fold and 455.74 fold. Under setting [1], the EC50 came out at 3.35e-05 M.
With `CC(C)[C@H](NC(=O)[C@@H]1CCC(=O)N1)C(=O)N[C@@H](CC(N)=O)C(=O)N[C@@H](Cc1ccccc1)C(=O)N[C@@H](CO)C(=O)N1CCC[C@H]1C(=O)N[C@@H](CC(N)=O)C(=O)N[C@@H](Cc1c[nH]c2ccccc12)C(N)=O` [Peram-CAH-I] ([pGlu]VNFSPNW-NH2), the “Receptor activation (in words)” value was “complete loss of efficacy” and the “Fold-reduction in activity (receptor activation relative to Carmo-HrTH-II)” value is listed as above 1360 fold. For the same compound, the concentration giving a half-maximal response (EC50) under setting [2] is above 0.0001 M.
Take `CC[C@H](C)[C@H](NC(=O)[C@@H]1CCC(=O)N1)C(=O)N[C@H](C(=O)N[C@@H](Cc1ccccc1)C(=O)N[C@H](C(=O)N1CCC[C@H]1C(=O)N[C@@H](CC(N)=O)C(=O)N[C@@H](Cc1c[nH]c2ccccc12)C(N)=O)[C@@H](C)O)[C@@H](C)O` [Polae-HrTH] ([pGlu]ITFTPNW-NH2): the “Fold-reduction in activity (receptor activation relative to Carmo-HrTH-II)” value is 120 fold and 119.12 fold. Also, under setting [1], the EC50 was found to be 8.76e-06 M.
Take `CC(C)C[C@H](NC(=O)[C@@H]1CCC(=O)N1)C(=O)N[C@H](C(=O)N[C@@H](Cc1ccccc1)C(=O)N[C@H](C(=O)N1CCC[C@H]1C(=O)N[C@@H](CC(N)=O)C(=O)N[C@@H](Cc1c[nH]c2ccccc12)C(=O)NCC(N)=O)[C@@H](C)O)[C@@H](C)O` [Triin-AKH] ([pGlu]LTFTPNWG-NH2): the “Fold-reduction in activity (receptor activation relative to Carmo-HrTH-II)” value was 7.45 fold. In addition, under setting [1], the EC50 turned out to be 5.48e-07 M.
As to `CC(=O)N[C@@H](C)C(=O)N[C@@H](CC(C)C)C(=O)N[C@H](C(=O)N[C@@H](Cc1ccccc1)C(=O)N[C@H](C(=O)N1CCC[C@H]1C(=O)N[C@@H](CC(N)=O)C(=O)N[C@@H](Cc1c[nH]c2ccccc12)C(=O)NCC(=O)N[C@H](C(N)=O)[C@@H](C)O)[C@@H](C)O)[C@@H](C)O` [[N-Ac. Ala]^1-analog] (Ac-ALTFTPNWGT-NH2), the “Fold-reduction in activity (receptor activation relative to Carmo-HrTH-II)” value is recorded as above 1360 fold. Also, the EC50 under setting [2] is above 0.0001 M.
Turning to “[pGlu]LAFTPNWGT-NH2 [Ala^3-analog, alanine-substituted analog of Carmo-HrTH-II, position 3]”, the “Fold-reduction in activity (receptor activation relative to Carmo-HrTH-II)” value is listed as 1045.82 fold.
Regarding “[pGlu]LTATPNWGT-NH2 [Ala^4-analog, alanine-substituted analog of Carmo-HrTH-II, position 4]”, the “Fold-reduction in activity (receptor activation relative to Carmo-HrTH-II)” value is above 1360 fold.
For the compound “[pGlu]VTFSRDWNA-NH2 [Aedae-ACP, AKH/corazonin-related peptide of Aedes aegypti]”, the “Receptor activation (in words)” value is “failed to activate the receptor at all tested doses”.
Same read-out and setting: with “pETFQYSRGWTN amide [Aedae-Crz, corazonin of the mosquito Aedes aegypti]” the entry was “failed to activate the receptor at all tested doses”.

The values above are taken from article PMC12310481, “Sequence, characterization and pharmacological analyses of the adipokinetic hormone receptor in the stick insect, Carausius morosus” (Frontiers in Endocrinology, 2025).
